Laboratory results: patent publication US20240287054A1, “COMPOUNDS THAT BIND NON-CANONICAL G-QUADRUPLEX STRUCTURES AND METHODS OF MAKING AND USING THE SAME” (The U.S.A., as Represented by the Secretary, Department of …, priority 2021, published 2024)
Where two headings read alike, the source gives them in different places.

Columns and labels:
MYCN G4 DNA [1] = assay: Surface plasmon resonance (SPR) with immobilized biotinylated MYCN G4 DNA; format: binding, human; conditions: for positive binding in SPR (SNR>3): single concentration 100 μM compound
Outline: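 Biotinylated MYCN G4 DNA, annealed at 95 °C, was captured on a streptavidin-coated CM5 chip; running buffer was 10 mM Tris pH 7.0, 100 mM KCl, 0.005% Tween 20, 5% DMSO. Compound series were injected at 25 μL/min (120 s association, 200 s dissociation), reference-subtracted, and KD was fitted with a Langmuir 1:1 model.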

MYCN G4 DNA [2] = assay: Circular dichroism (CD) thermal melting assay of MYCN G4; format: binding, human; conditions: for increase of Tm (ΔTm) of MYCN G4: 20 μM compound, 10 mM Tris pH 7.0, 5 mM KCl
Description: For thermal melt assay, MYCN oligonucleotides were prepared in a low KCl buffer (10 mM Tris, pH7.0, 5 mM KCl) at 5 μM concentration. To test the stabilization effect, G4 samples were incubated with and without 20 μM compound (final solution containing 5% DMSO). Then a total of 300 μL solution was added in a cuvette and heated from 20° C. to 95° C. in a CD spectrometer with an interval of 1° C. To calculate the melting temperature (Tm), the peak of CD spectrum at 263 nm was tracked, and […] vs temperature was plotted and fitted using a nonlinear sigmoidal dose-response model with a variable slope in GraphPad Prism 8 software. The shifting of melting temperature (ΔTm) was calculated using Tm (compound)−Tm (DMSO).
For CD melting assay, MYCN oligonucleotides were prepared in KCl buffer (10 mM sodium phosphate, pH7.0, 5 mM KCl) at 5 μM concentration. To test the stabilization effect of the compounds, MYCN G4 DNA samples were mixed with/without the compound (final solution containing 5% DMSO) at designed concentration. Then a total of 300 μL solution was added in a cuvette and heated from 20 to 80° C. in a CD spectrometer with an interval of 1° C. To calculate the melting temperature (Tm), the peak of CD spectrum at 263 nm was tracked, and […] vs temperature was plotted and fitted using a nonlinear sigmoidal dose-response model with a variable slope in GraphPad Prism 8 software.

[3] = MYCN G4, Langmuir 1:1 model, read-out: SPR KD

Kd (MYCN G4 DNA [1]; [3]) [µM]	SMILES	Kd (MYCN G4 DNA [1]; MYCN hairpin G4, SPR titration, read-out: KD by SPR) [µM]	ΔTm of MYCN G4 (MYCN G4 DNA [2]; 10 mM sodium phosphate pH 7.0, 5 mM KCl, 5 μM DNA) [°C]	positive binding in SPR (SNR>3) (MYCN G4 DNA [1])	increase of Tm (ΔTm) of MYCN G4 (MYCN G4 DNA [2]) [°C]	ΔTm of MYCN G4 at 40 μM (MYCN G4 DNA [2]; 40 μM MY-1, versus 20 μM)
–	COc1ccc(-c2noc(-c3ccc(NCCCNc4c5ccc(Cl)cc5nc5ccc(OC)cc45)nn3)n2)cc1 [B33, N^1-(6-chloro-2-methoxyacridin-9-yl)-N^3-(6-(3-(4-methoxyphenyl)-1,2,4-oxadiazol-5-yl)pyridazin-3-yl)propane-1,3-diamine]	0.07 ± 0.013	6.4	–	–	–
3.6 ± 2.4	COc1ccc(-c2noc(-c3ccc(NCCCN4CCCC4)nn3)n2)cc1 [MY-1, 6-(3-(4-methoxyphenyl)-1,2,4-oxadiazol-5-yl)-N-(3-(pyrrolidin-1-yl)propyl)pyridazin-3-amine]	–	–	hits	3.7±0.5	not significantly increased
1.5 ± 0.3	COc1ccc(-c2noc(-c3ccc(NCCCN4CCCCCC4)nn3)n2)cc1 [MY-8, N-(3-(azepan-1-yl)propyl)-6-(3-(4-methoxyphenyl)-1,2,4-oxadiazol-5-yl)pyridazin-3-amine]	–	–	–	–	–

SMILES	Kd (MYCN G4 DNA [1]; [3]) [µM]	Kd (MYCN G4 DNA [1]; MYCN hairpin G4, SPR titration, read-out: KD by SPR) [µM]	ΔTm of MYCN G4 (MYCN G4 DNA [2]; 10 mM sodium phosphate pH 7.0, 5 mM KCl, 5 μM DNA) [°C]	positive binding in SPR (SNR>3) (MYCN G4 DNA [1])	increase of Tm (ΔTm) of MYCN G4 (MYCN G4 DNA [2]) [°C]	ΔTm of MYCN G4 at 40 μM (MYCN G4 DNA [2]; 40 μM MY-1, versus 20 μM)
CCCN1CCN(c2nnc(-n3cccc3CNCCCN3CCCCCC3)s2)CC1 [Compound 1]	11.7 ± 2.6	–	–	hits	4.7±0.7	–
